Several values for one entry are separate records, joined by “and”; a condition that tells them apart may be missing. Equal values may be shown once.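 Exposure lasted 48 hours, with cells grown in 96-well plates and compounds tested at five concentrations. GI50 is the concentration that inhibits growth by half. TGI: total growth inhibition.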
Tests used:
Test in all cases: NCI tumour cell line growth inhibition, 48 h
786-0 renal = tested on: 786-0 renal
CCRF-CEM leukemia = tested on: CCRF-CEM leukemia
DLD-1 colon = tested on: DLD-1 colon
HT29 colon = tested on: HT29 colon
KM20L2 colon = tested on: KM20L2 colon
MALME-3M melanoma = tested on: MALME-3M melanoma
OVCAR-5 ovarian = tested on: OVCAR-5 ovarian
OVCAR-8 ovarian = tested on: OVCAR-8 ovarian
SF-268 CNS = tested on: SF-268 CNS
BT-549 breast = tested on: BT-549 breast

Row | Structure (SMILES) | TGI (786-0 renal) | TGI (CCRF-CEM leukemia) | TGI (DLD-1 colon) | TGI (HT29 colon) | TGI (KM20L2 colon) | TGI (MALME-3M melanoma) | TGI (OVCAR-5 ovarian) | TGI (OVCAR-8 ovarian) | TGI (SF-268 CNS) | TGI (BT-549 breast) | GI50 (BT-549 breast) | GI50 (HT29 colon) | GI50 (MALME-3M melanoma) | GI50 (OVCAR-8 ovarian) | GI50 (SF-268 CNS) | GI50 (786-0 renal) | GI50 (CCRF-CEM leukemia) | GI50 (DLD-1 colon) | GI50 (KM20L2 colon) | GI50 (OVCAR-5 ovarian)
1 | CCc1cccc(C)c1N1C(=O)C(=O)C(c2nc3ccccc3o2)C(=O)C1=O | > 100 µM | > 100 µM | > 100 µM | > 100 µM | > 100 µM | > 100 µM | > 100 µM | > 100 µM | > 100 µM |  |  |  |  |  |  |  |  |  |  | 
2 | COC(=O)C1=C(CS(=O)c2ccc([N+](=O)[O-])cc2[N+](=O)[O-])C2C=CC1C2 (configuration not stated) | 62.6 µM | 34.6 µM | 37.6 µM | 35.2 µM | 57.8 µM | 79.5 µM | > 100 µM | 80.9 µM | > 100 µM |  |  |  |  |  |  |  |  |  |  | 
3 | CN(C)c1nc(=NCc2ccco2)ss1 | 16.9 µM | 33.8 µM | 46.1 µM | 20.4 µM | > 100 µM | 54 µM | > 55.6 µM | 62.4 µM | 51.8 µM | 38.4 µM |  |  |  |  |  |  |  |  |  | 
4 | O=c1nc(-c2ccccc2)cc(CC(O)c2ccc(Cl)c(Cl)c2)[nH]1 (configuration not stated) | > 100 µM | > 100 µM | > 100 µM | > 100 µM | > 100 µM | > 100 µM | 82 µM | > 100 µM | > 100 µM |  |  |  |  |  |  |  |  |  |  | 
5 | CC1=C2C(=CC(C)(C)[C@@H]2O)C(=O)[C@](C)(O)C12CC2 | 0.0532 µM and 0.067 µM |  | 0.0825 µM | 0.208 µM and 0.0713 µM | 0.0744 µM | 0.112 µM and 0.054 µM | 0.0954 µM and 0.0374 µM | 0.182 µM and 1.29 µM | 0.0727 µM and 0.0659 µM | 0.107 µM and 0.0788 µM | 0.0305 µM | 0.00623 µM | 0.0486 µM | 0.0294 µM | 0.00973 µM |  |  |  |  | 
6 | O=C1OC(c2ccccc2)=N/C1=C\c1ccc(Oc2ccc(Cl)c(Cl)c2)cc1 | > 100 µM | 59.9 µM | > 100 µM | > 100 µM | > 100 µM | > 100 µM | > 100 µM | 46 µM | 57.6 µM |  |  |  |  |  |  |  |  |  |  | 
7 | COc1ccc(-c2cc(C(=O)Nc3cc(C(F)(F)F)cc(C(F)(F)F)c3)c3ccccc3n2)cc1 | 28.1 µM | > 100 µM | 43.6 µM | 36.1 µM | 31.4 µM | 46.4 µM | > 100 µM | 38.9 µM | 32.2 µM |  |  |  |  |  |  |  |  |  |  | 
8 | [O-]c1ccccc1C=Nc1ccc2c(c1)CCC2.[O-]c1ccccc1C=Nc1ccc2c(c1)CCC2.[O]=[U+2]=[O] | > 100 µM | > 100 µM | > 100 µM | > 100 µM | > 100 µM | > 100 µM | > 100 µM | > 100 µM | > 100 µM |  |  | > 100 µM | > 100 µM | 59.3 µM | > 100 µM | 40.3 µM | 8.39 µM | 27.8 µM | 56.6 µM | > 100 µM
9 | Cc1ccc(S(=O)(=O)N=NC=C2c3ccccc3N(O)c3ccccc32)cc1 | 7.36 µM | 2.93 µM | 8.46 µM | 13.2 µM | 12.4 µM | 25.5 µM | 27.8 µM | 14.7 µM | 19.5 µM |  |  |  |  |  |  |  |  |  |  | 
10 | CCOc1ccc(/C(C=O)=C(\Cl)c2ccc(OC)cc2)cc1 | > 100 µM | > 100 µM | > 100 µM | > 100 µM | > 100 µM | > 100 µM | > 100 µM | > 100 µM | > 100 µM | > 100 µM |  |  |  |  |  |  |  |  |  | 
11 | COC(=O)CCC12CCC(=O)C1[C@@H](C(=O)OC)C[C@H]2C(=O)OC (some centres not stated) | > 100 µM | > 100 µM | > 100 µM | > 100 µM | > 100 µM | > 100 µM | > 100 µM | > 100 µM | > 100 µM |  |  |  |  |  |  |  |  |  |  | 
12 | COc1ccc(OC(C(=O)O)C(C)C)c2c1CCCC2=O (configuration not stated) | > 100 µM | > 100 µM | > 100 µM | > 100 µM | > 100 µM | > 100 µM | > 100 µM | > 100 µM | > 100 µM |  |  |  |  |  |  |  |  |  |  | 
13 | CC(C)(O)/C=C/C(=O)[C@](C)(O)[C@H]1[C@H](O)C[C@@]2(C)[C@@H]3CC=C4[C@@H](C[C@H](O)C(=O)C4(C)C)[C@]3(C)C(=O)C[C@]12C | 0.939 µM and 0.362 µM | 0.62 µM and 3.04 µM | 8.08 µM | 18.3 µM |  | 0.932 µM |  | 19.9 µM | 0.631 µM and 0.807 µM |  |  | 0.0623 µM |  |  |  | 0.218 µM | 0.0462 µM | 0.119 µM | 0.0872 µM | 0.692 µM

From PubChem BioAssay (NCI)
